From patent publication US20090042849A1, “Phosphorylation of 5-lipoxygenase at ser523 and uses thereof” (priority 2006, published 2009)
Entries after “also recorded” stand apart in the source; their conditions may differ.

Experiments:
[1] = tested on: 5LO (Ser523 phosphorylated 5LO); assay: immunoblotting of total 5LO and P-5LO in rat myocardium (whole cell homogenate); assay type: in vivo; details: for myocardial levels of Ser523 phosphorylated 5LO (P-5LO) / myocardial total 5LO levels: whole cell homogenate, PIO or ATV 10 mg/kg/d 3 days, H-89 20 mg/kg i.p.
Method: Rats received: 1) PIO (10 mg/kg/d); 2) ATV (10 mg/kg/d); 3) PIO (10 mg/kg/d)+H89 (20 mg/kg); 4) ATV (10 mg/kg/d)+H89 (20 mg/kg); 5) H89 (20 mg/kg) or 6) water alone (control). PIO and ATV were suspended in water and administered by gastric gavage once daily for 3 days; H-89 was dissolved in DMSO (final concentration 5% v/v) and injected intraperitoneally on the third day. Rats in groups 5 and 6 received water by gastric gavage once daily for 3 days. Rats in groups 1, 2 and 6 received intraperitoneal inkection of DMSO 5%. Sixteen hours after the injection, rats were euthanized and the hearts explanted for further analyses. In another experiment, rats received 3-day pretreatment with: 1) water (sham); 2) PIO (10 mg/kg/d); 3) ATV (10 mg/kg/d); 4) PIO (10 mg/kg/d)+ATV (10 mg/kg/d); or 5) LPS (10 mg/kg).
PIO and ATV were administered by oral gavage once daily as above; LPS was administered intravenously. In addition, rats in groups 1-4 received intravenous saline on the […], whereas rats in group 1 and 5 received water by gastric gavage once daily for 3 days and the LPS injection on the third day. Sixteen hours after the injection, rats were euthanized and the hearts explanted for further analyses.
The hearts were rapidly explanted, rinsed in cold PBS (pH 7.4), containing 0.16 mg/ml heparin to remove red blood cells and clots, frozen in liquid nitrogen and stored at −70° C. Myocardial samples from the anterior left ventricular wall were homogenized in RIPA lysis buffer (Santa Cruz Biotechnology, Santa Cruz, Calif.) and centrifuged at 14,000 rpm for 15 min at 4° C. The supernatant was collected and the total protein concentration was determined using the Lowry protein assay. […] The protein samples with loading buffer were run in 4-20% Tri-HCl Ready Gel at a 100V for 2 h until the desired molecular weight bands were separated. After electrophoresis, the gel was equilibrated in transfer buffer (25 mM Tris, 193 mM glycine, 0.1% SDS and 10% methanol) and the proteins were transferred to nitrocellulose membrane. The protein signals were quantified by an image-scanning-densitometer and the strength of each protein signal was normalized to the corresponding b-actin stain signal. Data are expressed as a ratio between the protein and the corresponding b-actin signal density.

5LO mRNA = assay: rtPCR of 5LO mRNA in adult rat cardiomyocytes; assay type: cell-based
Method: Cardiac myocytes were isolated from adult Sprague-Dawley rats (250-300 g, male). Animals were heparinized (1,000-2,000 units i.p.) 5 min before being anesthetized with ketamine (100 mg/kg) and xylazine (10 mg/kg), and the hearts were removed and placed in ice-cold heart media solution (in mmol/l: 112 NaCl, 5.4 KCl, 1 MgCl2, 9 NaH2PO4, and 11.1 D-glucose; supplemented with 10 HEPES, 30 taurine, 2 DL-carnitine, and 2 creatine, pH. 7.4). The hearts were perfused retrogradely in a Langendorff apparatus with Ca^2+-free heart media for 5 min at 5 ml/min at 37° C., followed by perfusion with Ca^2+-free heart media containing collagenase II, 210 U/mg (Worthington, Lakewood, N.J.) for 20 min. After perfusion, both ventricles were removed from the heart and minced in collagenase II-containing heart media for 10-15 min. The cell solution was then washed several times to remove collagenase II and reexposed to 1.2 mM Ca2^+ over 25 min to produce Ca2^+-tolerant cardiac myocytes. Myocytes were then plated in 4% FBS on laminin (2 μg/cm^2)-coated plates for 1 h and incubated at 37° C. in 5% CO2 for 12-24 h before experiments (21). Cells were incubated with 1) vehicle (0.07% ethanol); 2) PIO (10 μM)+ATV (10 μM); 3) H-89 (0.1 μM); or 4) PIO+ATV+H-89 for 12 hours. The supernatants were collected directly for LTB4 analyses by ELISA and the cells were harvested for immunoblotting. In addition, cells were plated in 8-chamber slides, received the same treatment as above and were used for immunohistochemical staining.
Equal amounts of total cellular RNA were reverse-transcribed with oligo(dT) primer by use of AMV Reverse Transcriptase (Applied Biosystems). Transcribed cDNAs (40 ng) were used for Real Time PCR with specific primers: rat ALOX5. […] The Ct (threshold cycle) is defined as the number of cycles required for the fluorescence signal to exceed the detection threshold. Expression of the ALOX5 relative to the GAPDH was calculated as the different between the threshold values of these two genes. […]

Compound	effect on the increase in P-5LO by PIO and ATV ([1]; H-89 20 mg/kg i.p. with PIO or ATV 10 mg/kg/d)	myocardial levels of Ser523 phosphorylated 5LO (P-5LO) [1]	myocardial total 5LO levels [1]	5LO mRNA levels in the cardiomyocytes (5LO mRNA)	5LO phosphorylation, PIO and ATV compared with LPS ([1]; PIO, ATV 10 mg/kg/d, LPS 10 mg/kg i.v.)
O=S(=O)(NCCNC/C=C/c1ccc(Br)cc1)c1cccc2cnccc12 [H-89]	completely blocked	did not affect	did not affect	did not affect	–
CC(C)c1c(C(=O)Nc2ccccc2)c(-c2ccccc2)c(-c2ccc(F)cc2)n1CCC(O)CC(O)CC(=O)O (centres unmarked) [ATV, 7-[2-(4-fluorophenyl)-5-(1-methylethyl)-3-phenyl-4-(phenylcarbamoyl)-1H-pyrrol-1-yl]-3,5-dihydroxy-heptanoic acid]	–	augment; also recorded: increased	without detectable change; also recorded: did not affect	did not affect	significantly greater increase
